From patent US3996263A, “9-Oxo-11α-methyl-15.EPSILON.-hyroxyprost-13(trans)-enoic acid derivatives and process for the preparaion thereof” (priority 1975, dated 1976)

How the values were obtained:
[1] = test system: indomethacin-induced gastric ulceration in rats; test: Inhibition of indomethacin-induced gastric ulceration by prostaglandins, rats; type: in vivo, Sprague-Dawley strain male rats; conditions: for Inhibitory ratio (%): 5 hours; for ED50: Rattus norvegicus, po, 5 h, p.o., indomethacin 30 mg/kg i.p., read-out: ED50 (50% inhibition of the ulcer formation)
Description: The method employed for the production and evaluation of indomethacin-induced ulcers was essentially same as described by Lee, Mollison and Cheng in Archives Internationales de Pharmacodynamie et de Therapie, vol. 191, page 370 - 377 and by Lippmann in Prostaglandins, vol. 7, page 1 - 10. Sprague-Dawley strain male rats weighing 200 - 220 g were fasted 20 hours with free access to water until the start of experiment. Indomethacin was suspended in 0.4% Tween 80 (surface active agent, product of Atlas Powder Co. U.S.A.) solution and given intraperitoneally into the rats at a dose of 30 mg/kg body weight. The test drugs were dissolved in physiological saline with aid of an ultrasonicator and administered perorally immidiately after the administration of indomethacin. The animals were killed 5 hours later and the ulcer formation in the glandular portion of the stomach was determined.

[2] = test system: stress-induced ulceration in rats; test: Inhibition of the stress-induced ulceration by prostaglandins, rats; type: in vivo, Donryu strain male rats; conditions: for Inhibitory ratio (%): stress 8 hr at 23° C; for anti-stress ulcer potency relative to Compound C / anti-stress ulcer activity compared with PGE1 / anti-stress ulcer activity compared with PGE2: oral; for anti-stress ulcer potency relative to Compound C: versus Compound C; for anti-stress ulcer activity compared with PGE1: versus PGE1; for anti-stress ulcer activity compared with PGE2: versus PGE2
Description: The method employed for the production and evaluation of stress ulcer was essentially same as described by Takagi and Okabe in Journal of Pharmacology vol. 18, pages 9-18 (Japan). Donryu strain male rats, 200 - 230 g in weight, were used. Animals were placed in the stress cage and immersed in a water bath kept at 23° C for 8 hr to the height of the xiphoid of the animal. At the end of the stress, the animals were killed by a blow, and stomach was removed, inflated with 10 ml of 1% formalin solution and placed into 1% formalin solution. Thereafter the stomach was cut along the greater curvature and examined for lesions macroscopically. The ulcer index was calculated as the sum of the length of each lesion in the stomach. Inhibitory ratio of ulceration was calculated for each dose. The test drugs were dissolved into 0.4% Tween 80 solution with aid of an ultrasonicator and administered orally (0.2 ml/100 g) immediately before the stress.

[3] = test system: gastric secretion; conditions: German Patent Offenlegungsschrift 2,313,868; cited from earlier work
[4] = cited from earlier work
[5] = test system: intestinal tube; conditions: stated for prior prostaglandins; cited from earlier work
[6] = vasodepressor activity; type: in vivo; conditions: in words
[7] = stated for prior prostaglandins; cited from earlier work
[8] = diarrheal activity; type: in vivo; conditions: in words

CCCCC(C)(C)[C@H](O)/C=C/[C@H]1[C@H](C)CC(=O)[C@@H]1CCCCCCC(=O)O (relative stereo) [Compound A, 9-Oxo-11α,16,16-trimethyl-15α-hydroxyprost-13(trans)-enoic acid]
Inhibitory ratio (%) ([1]; 0.25 mg/kg p.o.): 63% | Inhibitory ratio (%) ([1]; 0.50 mg/kg p.o.): 71% | ED50 [1]: 0.16 mg/kg | Inhibitory ratio (%) ([2]; 0.3 mg/kg p.o.): 12% | Inhibitory ratio (%) ([2]; 1.0 mg/kg p.o.): 73% | anti-stress ulcer potency relative to Compound C [2]: more than 10 times | anti-stress ulcer activity compared with PGE1 [2]: significantly more potent than that of PGE1 | anti-stress ulcer activity compared with PGE2 [2]: equally potent as or slightly more potent than that of PGE2

CCCCC(C)(C)[C@H](O)/C=C/[C@H]1[C@H](C)CC(=O)[C@@H]1CCCCCCC(=O)OC (relative stereo) [Compound B, Methyl 9-oxo-11α,16,16-trimethyl-15α-hydroxyprost-13(trans)-enoate]
Inhibitory ratio (%) ([1]; 0.25 mg/kg p.o.): 49% | Inhibitory ratio (%) ([1]; 0.50 mg/kg p.o.): 67% | ED50 [1]: 0.26 mg/kg | Inhibitory ratio (%) ([2]; 0.3 mg/kg p.o.): 11% | Inhibitory ratio (%) ([2]; 1.0 mg/kg p.o.): 92% | anti-stress ulcer potency relative to Compound C [2]: more than 10 times | anti-stress ulcer activity compared with PGE1 [2]: significantly more potent than that of PGE1 | anti-stress ulcer activity compared with PGE2 [2]: equally potent as or slightly more potent than that of PGE2

CCCCC[C@H](O)/C=C/[C@H]1[C@H](C)CC(=O)[C@@H]1CCCCCCC(=O)O (relative stereo) [Compound C, 9-Oxo-11α-methyl-15α-hydroxyprost-13(trans)-enoic acid]
Inhibitory ratio (%) ([1]; 1.25 mg/kg p.o.): 52% | Inhibitory ratio (%) ([1]; 2.5 mg/kg p.o.): 68% | ED50 [1]: 1.18 mg/kg | Inhibitory ratio (%) ([2]; 5.0 mg/kg p.o.): 9% | Inhibitory ratio (%) ([2]; 10 mg/kg p.o.): 40%

CCCCC[C@H](O)/C=C/[C@H]1[C@@H](C)CC(=O)[C@@H]1CCCCCCC(=O)O (relative stereo) [Compound D, 9-Oxo-11β-methyl-15α-hydroxyprost-13(trans)-enoic acid, reference compound]
Inhibitory ratio (%) ([1]; 1.25 mg/kg p.o.): 43% | Inhibitory ratio (%) ([1]; 2.5 mg/kg p.o.): 61% | ED50 [1]: 1.64 mg/kg

CCCCCC(O)/C=C/C1C(C)CC(=O)C1CCCCCCC(=O)O (stereo not drawn) [9-oxo-11β-methyl-15α(or β)-hydroxyprost-13(trans)-enoic acid]
inhibition of gastric secretion [3]: inhibit gastric secretion | anti-ulcerogenic activity compared with prostaglandins E1 and E2 ([4]; versus prostaglandins E1 and E2): extremely lower than that of prostaglandins E1 and E2

CCCCC[C@H](O)/C=C/[C@H]1[C@H](O)CC(=O)[C@@H]1CCCCCCC(=O)O [PGE1]
intestinal tube-contracting activity [5]: potent hypotensive and intestinal tube-contracting activities

CCCCC[C@H](O)/C=C/[C@H]1[C@H](O)CC(=O)[C@@H]1C/C=C\CCCC(=O)O [PGE2, reference compound]
vasodepressor activity [6]: vasode-pressor activity | intestinal tube-contracting activity [5]: potent hypotensive and intestinal tube-contracting activities | anti-ulcerogenic effects ([4]; U.S. Pat. No. 3,781,429, Prostaglandins 1974, 6, 523-532): anti-ulcerogenic effects | Inhibitory ratio (%) ([1]; 0.05 mg/kg p.o.): 57% | Inhibitory ratio (%) ([1]; 0.25 mg/kg p.o.): 79% | potency relative to compound A in inhibition of the indomethacin-induced ulcer formation ([1]; PGE2 versus compound A): approximately 5 times | ED50 [1]: 0.03 mg/kg | hypotensive activity [7]: potent hypotensive | Inhibitory ratio (%) ([2]; 0.3 mg/kg p.o.): 17% | Inhibitory ratio (%) ([2]; 1.0 mg/kg p.o.): 60% | diarrhea (side effect) [8]: exhibits various side effects including diarrhea
